In PubChem BioAssay (NCI):
Values joined by “and” are separate entries in the source; they are usually repeats but may differ in a detail not shown here. Equal entries are not always repeated.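 Exposure lasted 48 hours, with cells grown in 96-well plates and compounds tested at five concentrations. GI50 marks 50% less growth. The concentration for full growth arrest is given as TGI.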

Test system: OVCAR-4 ovarian
Test: NCI anticancer screen, dose series, 48 h

NC(=O)C(=Cc1ccc(C(O)P(=O)(O)O)cc1)C(N)=O (stereo unspecified) and CCNC(=O)CCN(C(=O)O)S(=O)(=O)c1ccc(NC(=O)c2ccccc2)cc1 cannot be ordered by TGI: > 100 µM for the first, > 100 µM for the second.

O=C(Nc1cc(Cl)c(Cl)cc1Cl)C(=O)C1C=CCS1(=O)=O (stereo unspecified) and CC1=C(C(=O)Nc2ccccc2C)C(c2ccc(Cl)c(Cl)c2)C(C(=O)Nc2ccccc2C)=C(C)N1 cannot be ordered by TGI: > 100 µM for the first, > 100 µM for the second.

Going from O=C(/C=C/c1ccc([N+](=O)[O-])o1)N1CCN(Cc2ccccc2)CC1 to Cc1[nH]c2ccccc2c1C1Cc2ccccc2N1C(=O)/C=C\C(=O)O (stereo unspecified), the TGI rises from 29.7 µM to > 100 µM.

First: CC1C[C@@]2(c3ccccc3)C(=O)CCC[C@H]2N1 (stereo partly specified)
Second: CCN(CC)CCC(=O)NC1c2ccc(Cl)cc2Oc2c(C)cccc21 (stereo unspecified)
The TGI of the first is higher: > 100 µM for the first, 28.9 µM for the second.

O=[N+]([O-])c1cccc(/C=N\NS(=O)(=O)c2ccc(Cl)cc2)c1O and CCOC(=O)c1cc(C#N)c(=O)n(/N=C(\C)c2ccncc2)c1O cannot be ordered by TGI: > 100 µM for the first, > 100 µM for the second.

CC(=O)N[C@H]1C=C[C@@H]2/C=C(C)/C=C/[C@@H](C)[C@H]([C@H](C)[C@H](O)[C@@H](C)NC(C)=O)OC(=O)/C=C/C=C(C)\C=C\[C@]2(C)C1 and CCCCOC(=O)NC(=O)c1cn(CCCOC(=O)CCCCCCCCC(=O)OCCCn2cc(C(=O)NC(=O)OCCCC)c(=O)[nH]c2=O)c(=O)[nH]c1=O cannot be ordered by TGI: > 45 µM for the first, > 100 µM for the second.

Cc1cc(I)cc(CN(C)CCCN2CCSCC2)c1O was tested, and the TGI was > 100 µM.

Compared with CC(=O)N[C@H]1C=C[C@@H]2/C=C(C)/C=C/[C@@H](C)[C@H]([C@H](C)[C@H](O)[C@@H](C)NC(C)=O)OC(=O)/C=C/C=C(C)\C=C\[C@]2(C)C1, CCOC(=O)c1cc(C#N)c(=O)n(/N=C(\C)c2ccncc2)c1O is higher in GI50: 6.59 µM for the first, > 100 µM for the second.

Work on Cc1cc(I)cc(CN(C)CCCN2CCSCC2)c1O yielded a GI50 of 44.7 µM.

Test system: SF-539 CNS
Test: NCI anticancer screen, dose series, 48 h

c1ccc2c(c1)CCC/C2=N\OCC1CO1 (stereo unspecified) and CC1C[C@@]2(c3ccccc3)C(=O)CCC[C@H]2N1 (stereo partly specified) cannot be ordered by TGI: > 100 µM for the first, > 100 µM for the second.

Going from CC/C(C)=C1\CCC(CN2CCOCC2)C1=O (stereo unspecified) to Cc1cc(I)cc(CN(C)CCCN2CCSCC2)c1O, the TGI rises from 35 µM to 62.7 µM (1.8-fold).

First: COC(=O)C1C(C(=O)OC)C2(OC)c3ccccc3-c3ccccc3C12 (stereo unspecified)
Second: CC1=C(C(=O)Nc2ccccc2C)C(c2ccc(Cl)c(Cl)c2)C(C(=O)Nc2ccccc2C)=C(C)N1
The TGI of the first is higher: > 100 µM for the first, 49.6 µM for the second.

O=C1OC(CC(=O)c2ccc(Cl)c(Cl)c2)C(Cl)=C1Cl (stereo unspecified) and O=C(Nc1cc(Cl)c(Cl)cc1Cl)C(=O)C1C=CCS1(=O)=O (stereo unspecified) cannot be ordered by TGI: > 100 µM for the first, > 100 µM for the second.

CCN(CC)CC(O)CNc1ccc(NCC2CO2)c2c1C(=O)c1ccccc1C2=O (stereo unspecified) and CC(O)c1cccc(NCc2c3ccccc3c(=O)n3c2oc2ccccc23)c1 (stereo unspecified) are within 1.5-fold of each other in TGI: 3.08 µM for the first, 3.43 µM for the second.

First: CC(=O)c1cccc(N2COC(C)(C)c3nc4ccccc4n3C2)c1
Second: O=C(/C=C/c1ccc([N+](=O)[O-])o1)N1CCN(Cc2ccccc2)CC1
The TGI of the first is higher: > 100 µM for the first, 19.4 µM for the second.

O=[N+]([O-])c1cccc(C2N3CCCCC3[C@@H]3c4[nH]c5ccccc5c4CCN23)c1 (stereo partly specified) and CCCCc1c2c(nc3c1CCC/C3=C\c1ccccc1)C(=O)CCC2 are within 1.5-fold of each other in TGI: 29.7 µM for the first, 33.2 µM for the second.

CCOC(=O)NC(=O)c1cn(CC(=O)NCC(=O)NCC(=O)NCCCN2CCN(CCCNC(=O)CNC(=O)CNC(=O)Cn3cc(C(=O)NC(=O)OCC)c(=O)[nH]c3=O)CC2)c(=O)[nH]c1=O and CCCCOC(=O)NC(=O)c1cn(CCCOC(=O)CCCCCCCCC(=O)OCCCn2cc(C(=O)NC(=O)OCCCC)c(=O)[nH]c2=O)c(=O)[nH]c1=O cannot be ordered by TGI: > 100 µM for the first, > 100 µM for the second.

First: O=S(=O)(N/N=C/c1ccc(/C=N/NS(=O)(=O)c2ccccc2)cc1)c1ccccc1
Second: Nc1ccc(N(S(=O)(=O)c2ccccc2)S(=O)(=O)c2ccccc2)c(Cl)c1
The TGI of the first is lower: 93.3 µM for the first, > 100 µM for the second.

CC[C@@H]1OC2(C)CC(S(=O)(=O)c3ccccc3O)CC1O2 (stereo partly specified) and CCNC(=O)CCN(C(=O)O)S(=O)(=O)c1ccc(NC(=O)c2ccccc2)cc1 cannot be ordered by TGI: > 100 µM for the first, > 100 µM for the second.

CCOC(=O)C(N)C[S][Sn]([CH3])([CH3])[Cl] (stereo unspecified) and CCOC(=O)C(Cc1c[nH]c2ccc(N)cc12)(NC(C)=O)C(=O)OCC cannot be ordered by TGI: > 100 µM for the first, > 1000 µM for the second.

CC(=O)OCC1OC(N2C(=O)C(=O)c3cc(C)ccc32)C(OC(C)=O)C(OC(C)=O)C1OC(C)=O (stereo unspecified) and CC(=O)Nc1ccc(C(=O)NN2C(=O)C(Cl)C2c2ccc(Cl)cc2)cc1 (stereo unspecified) cannot be ordered by TGI: > 100 µM for the first, > 54.2 µM for the second.

O=C1c2ccccc2-c2cccc3ccc(Cc4ccc5ccccc5c4)c1c23 and O=[N+]([O-])c1cccc(/C=N\NS(=O)(=O)c2ccc(Cl)cc2)c1O cannot be ordered by TGI: > 100 µM for the first, > 100 µM for the second.

COc1cc(Cl)c2c3c(c(C(C)=O)oc13)CCC2 and C=CC1(C(=O)O)CCC(C(C)(C)C)CC1 (stereo unspecified) cannot be ordered by TGI: > 100 µM for the first, > 100 µM for the second.

In the case of NC(=O)C(=Cc1ccc(C(O)P(=O)(O)O)cc1)C(N)=O (stereo unspecified), the TGI is reported as > 100 µM.

CCOC(=O)C(N)C[S][Sn]([CH3])([CH3])[Cl] (stereo unspecified) and CCOC(=O)C(Cc1c[nH]c2ccc(N)cc12)(NC(C)=O)C(=O)OCC cannot be ordered by GI50: > 100 µM for the first, > 1000 µM for the second.

First: CC(O)c1cccc(NCc2c3ccccc3c(=O)n3c2oc2ccccc23)c1 (stereo unspecified)
Second: Cc1cc(I)cc(CN(C)CCCN2CCSCC2)c1O
The GI50 of the first is 17-fold lower: 1.37 µM for the first, 23.4 µM for the second.

CC(=O)N[C@H]1C=C[C@@H]2/C=C(C)/C=C/[C@@H](C)[C@H]([C@H](C)[C@H](O)[C@@H](C)NC(C)=O)OC(=O)/C=C/C=C(C)\C=C\[C@]2(C)C1 was tested, and the GI50 was 0.0107 µM and 0.0045 µM.

CC(=O)N[C@H]1C=C[C@@H]2/C=C(C)/C=C/[C@@H](C)[C@H]([C@H](C)[C@H](O)[C@@H](C)NC(C)=O)OC(=O)/C=C/C=C(C)\C=C\[C@]2(C)C1 was tested, and the TGI was 4.65 µM and 24.6 µM.
